In publication PMC7238241, “Lack of Correlation between In Vitro and In Vivo Studies on the Inhibitory Effects of (‒)-Sophoranone on CYP2C9 Is Attributable to Low Oral Absorption and Extensive Plasma Protein Binding of (‒)-Sophoranone” (Pharmaceutics, 2020):

Experiments:
CYP2B6 = target: T1, CYP2B6 (Homo sapiens, UniProt P20813); assay: Reversible CYP2B6 inhibition, cocktail assay (bupropion hydroxylase) in human liver microsomes; type: biochemical
T1 construct: tissue Corning Life Sciences; host or cells: pooled human liver microsomes, 150 donors
T1 sequence (P20813 1-491): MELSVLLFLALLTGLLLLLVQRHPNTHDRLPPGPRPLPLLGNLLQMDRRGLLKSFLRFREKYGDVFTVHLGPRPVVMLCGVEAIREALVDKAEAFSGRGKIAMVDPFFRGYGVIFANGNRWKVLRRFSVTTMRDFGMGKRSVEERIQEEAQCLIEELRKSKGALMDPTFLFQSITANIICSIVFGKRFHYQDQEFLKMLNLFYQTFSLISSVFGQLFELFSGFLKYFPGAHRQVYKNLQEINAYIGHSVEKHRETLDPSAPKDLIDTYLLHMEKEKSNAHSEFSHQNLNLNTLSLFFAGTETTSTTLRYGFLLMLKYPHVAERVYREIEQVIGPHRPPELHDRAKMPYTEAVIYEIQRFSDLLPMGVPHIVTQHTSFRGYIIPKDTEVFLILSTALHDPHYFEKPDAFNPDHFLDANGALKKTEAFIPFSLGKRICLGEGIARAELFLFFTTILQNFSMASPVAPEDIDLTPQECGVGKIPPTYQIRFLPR
Procedure: (§1) The inhibitory effects of SPN on CYP1A2, CYP2A6, CYP2B6, CYP2C8, CYP2C9, CYP2C19, CYP2D6, CYP2E1, and CYP3A4 were evaluated in pooled human liver microsomes through the use of specific CYP probe substrates (cocktail assay), as previously described with a slight modification. Concentrations of each CYP probe in Table 1 were used close to their reported Km values.
(§2) Briefly, a 90-µL incubation mixture, including pooled human liver microsomes (final concentration 0.1 mg/mL), 50 mM phosphate buffer (pH 7.4), each CYP-probe substrate cocktail set, and SPN (0–50 μM), was pre-incubated for 5 min at 37 °C. SPN was dissolved in methanol and spiked into the incubation mixture to a final concentration of 0.5% methanol. […]
(§3) The IC50 values were calculated via nonlinear least-squares regression analysis from logarithmic plots of inhibitor concentration versus percentage of activity remaining after inhibition, using SigmaPlot (ver. 14.0; Systat Software Inc, Chicago, IL, USA). The Ki values were determined from the equations for a single substrate single inhibitor model and the software available in the SigmaPlot Enzyme Kinetics module. Competitive, non-competitive, uncompetitive, or mixed inhibition models were evaluated and ranked according to the best fit based on Akaike Information Criterion (AIC) values. […]

CYP2C8 = target: T2, CYP2C8 (Homo sapiens, UniProt P10632); assay: Reversible CYP2C8 inhibition, cocktail assay (rosiglitazone p-hydroxylase) in human liver microsomes; type: biochemical; conditions: human liver microsomes 0.1 mg/mL, rosiglitazone probe, n = 3
T2 construct: tissue Corning Life Sciences; host or cells: pooled human liver microsomes, 150 donors
T2 sequence (P10632 1-490): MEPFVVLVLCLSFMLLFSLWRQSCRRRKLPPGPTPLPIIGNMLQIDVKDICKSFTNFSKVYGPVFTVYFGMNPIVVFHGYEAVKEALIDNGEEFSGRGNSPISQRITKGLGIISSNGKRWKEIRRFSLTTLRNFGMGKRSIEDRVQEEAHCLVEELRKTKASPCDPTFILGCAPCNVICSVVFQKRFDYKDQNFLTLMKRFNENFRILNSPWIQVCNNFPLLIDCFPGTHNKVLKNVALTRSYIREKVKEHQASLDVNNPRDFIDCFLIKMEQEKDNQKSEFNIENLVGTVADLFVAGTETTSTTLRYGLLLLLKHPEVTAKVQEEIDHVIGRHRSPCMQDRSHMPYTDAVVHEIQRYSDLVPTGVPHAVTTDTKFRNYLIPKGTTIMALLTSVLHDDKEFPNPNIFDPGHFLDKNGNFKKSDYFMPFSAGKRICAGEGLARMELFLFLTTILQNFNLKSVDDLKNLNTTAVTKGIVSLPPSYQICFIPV
Procedure: as §1, §2, §3

[1] = Unbound fraction in rat plasma (rapid equilibrium dialysis); type: in vitro ADME
Procedure: The plasma or liver microsomal protein bindings were performed using a rapid equilibrium dialysis device and cellulose membranes with a molecular weight cutoff of 8000 (Thermo Scientific, Rockford, IL, USA). The rat and human plasma samples (200 μL) containing SPN at 10 and 50 μM, respectively, were dialyzed against a dialysis buffer, phosphate-buffered saline (PBS, 400 μL). The loaded dialysis plate was covered with sealing tape, placed on an orbital shaker at approximately 200 rpm, and incubated at 37 °C for 4 h. Thereafter, samples (100 μL) from both PBS and plasma chambers were collected and mixed with an equal volume of blank plasma and PBS, respectively. All samples were stored at −80 °C until LC-MS/MS analysis. The unbound fraction of SPN in human (or rat) plasma was calculated by dividing the SPN concentration in PBS by that in plasma.

[2] = Unbound fraction in human liver microsomes (rapid equilibrium dialysis); type: in vitro ADME; conditions: microsomal protein 0.1 mg/mL, n = 3
Procedure: The human liver microsomal incubation mixtures (final concentration 0.1 mg/mL) without NADPH generating system were used to determine the unbound fraction of SPN. Other procedures were similar to those of plasma protein binding assay.

## CC(C)=CCc1cc([C@@H]2CC(=O)c3ccc(O)c(CC=C(C)C)c3O2)cc(CC=C(C)C)c1O [SPN, (‒)-Sophoranone]
CYP2B6; at the highest tested concentration (50 μM)
  residual enzyme activity, CYP2B6: greater than 80%
CYP2B6; human liver microsomes 0.1 mg/mL, cocktail assay, bupropion probe, n = 3
  IC50: > 50 µM
CYP2C8
  IC50: 13.6 ± 3.15 µM
[1]; 10 μM, 37 °C, 4 h, n = 3, read-out: free fraction in rat plasma
  fraction unbound at 4 h, 10 µM: 0.00038 ± 0.000102
[1]; 50 μM, 37 °C, 4 h, n = 3, read-out: free fraction in rat plasma
  fraction unbound at 4 h, 50 µM: 0.000531 ± 0.000149
[1]; 10 and 50 μM, read-out: plasma protein binding, rat
  fraction unbound at 4 h: < 0.001
[2]; 10 μM
  fraction unbound at 4 h, 10 µM: 0.00621 ± 0.000405
[2]; 50 μM
  fraction unbound at 4 h, 50 µM: 0.00724 ± 0.0017
